Common to all, as to experiment: NCI-60 cell line screen, 48 h
Experiment [1] relates to NCI/ADR-RES.
Experiment [2] has as its system KM12.
The subject of experiment [3] is SNB-75.
In experiment [4] the test system is A549.
The subject of experiment [5] is SK-MEL-2.
The subject of experiment [6] is UACC-257.
Experiment [7] has as its system NCI-H522.
The test system of experiment [8] is NCI-H23.
For experiment [9], the system named is RXF 393.
The subject of experiment [10] is MCF7.
For experiment [11], the system named is MOLT-4.
Experiment [12] deals with BT-549.
Experiment [13] concerns SR.
Experiment [14] relates to MDA-MB-435.
Experiment [15] relates to MDA-MB-231.
The subject of experiment [16] is SK-OV-3.
The test system of experiment [17] is HCC 2998.
Experiment [18] relates to UO-31.
Experiment [19] deals with Malme-3M.
For experiment [20], the system named is NCI-H226.

Consider eight molecules from ChEMBL document CHEMBL1201862, “PubChem BioAssay data set” (2004).

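Five compound concentrations were applied to cells in 96-well plates for 48 hours; endpoints were derived by simple linear interpolation of the resulting dose-response curve. Abbreviation: GI50, concentration required for 50% inhibition of growth.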 Activity calls are given as the source filed them. Rule as the data show it: active = GI50 up to about 1.1 µM and inactive = higher. Where a SMILES comes first, the peptide text is derived from it. The star is where a group is joined. Boc = CC(C)(C)OC(=O)*; OBn = c1ccc(CO*)cc1

Take `CC(=O)O[C@H]1C(=O)[C@@]2(C)C(C(OC(=O)c3ccccc3)[C@]3(O)CC(OC(=O)C(O)C(NC(=O)c4ccccc4)c4ccc(F)cc4)C(C)=C1C3(C)C)[C@]1(OC(C)=O)CO[C@@H]1C[C@@H]2O` (stereo partly specified): the GI50 in [1] was 0.647 µM (active); in [2], < 0.001 µM (active); in experiment [3] it was 0.00168 µM (active); in experiment [4], 0.00104 µM (active); in experiment [5], 0.00133 µM (active); in [6], 1.17 µM (inactive). Moreover, the GI50 in experiment [7] is < 0.001 µM (active); in experiment [8], 0.0011 µM (active); in experiment [9], < 0.001 µM (active); in [10] it was < 0.001 µM (active); in experiment [11], 0.00359 µM (active); in experiment [12] it was 0.00152 µM (active). The GI50 in experiment [13] was < 0.001 µM (active); in [14], < 0.001 µM (active); in experiment [15], 0.00181 µM (active); in experiment [16] it was 0.00371 µM (active); in [17], 0.00124 µM (active); in [18], 0.166 µM (active).

In the case of `Cc1cc(C)c2c(=O)n(CC(O)CN3CCN(CCOCCO)CC3)sc2n1` (stereo unspecified), the GI50 is > 100 µM (inactive) in experiment [1]; 22 µM (inactive) in [2]; 1.65 µM (inactive) in experiment [3]; 32.4 µM (inactive) in experiment [4]; 19.7 µM (inactive) in experiment [5]; 12.2 µM (inactive) in experiment [6]. The GI50 in [7] was 14.6 µM (inactive); in [19] it was 18.8 µM (inactive); in experiment [20], > 100 µM (inactive); in experiment [8], 15.3 µM (inactive); in [9] it was 4.68 µM (inactive); in experiment [10], 18.3 µM (inactive). Moreover, the GI50 in experiment [11] is 24.5 µM (inactive); in [12], 16.6 µM (inactive); in [13], 25.8 µM (inactive); in [14], 17.4 µM (inactive); in [15], 19.1 µM (inactive); in experiment [16], 26.4 µM (inactive). For the same molecule, the GI50 in [18] is 20.7 µM (inactive).

As to `CC(C)CC(NC(=O)OC(C)(C)C)C(=O)N1CCCC1C(=O)OCc1ccccc1` (stereo not drawn) (Boc-Leu-Pro-OBn; configuration not given here), the GI50 in experiment [1], in experiment [2], in experiment [3], in experiment [4], in [5] and in experiment [6] was > 100 µM (inactive) in each case. Also, the GI50 in [7] was > 100 µM (inactive); in [19], > 100 µM (inactive); in [20] it was > 100 µM (inactive); in [8], > 100 µM (inactive); in experiment [9], > 100 µM (inactive); in experiment [10], 67.8 µM (inactive). For the same molecule, the GI50 was > 100 µM (inactive) in experiment [12]; 15.3 µM (inactive) in [13]; > 100 µM (inactive) in [14]; > 100 µM (inactive) in experiment [15]; > 100 µM (inactive) in experiment [16]; 75 µM (inactive) in [18].

Turning to `CN1C(=O)N/C(=C\c2ccc(S(=O)(=O)N/N=C\C(O)C(O)C(O)CO)cc2)C1=O` (stereo unspecified), the GI50 in experiment [1], in [2], in experiment [3], in [4], in experiment [5] and in experiment [6] was > 100 µM (inactive) in each case. Also, the GI50 in [19] was > 100 µM (inactive); in experiment [20] it was > 10 µM (inactive); in [8], > 100 µM (inactive); in experiment [9], > 100 µM (inactive); in experiment [10], > 100 µM (inactive); in experiment [11], > 100 µM (inactive). Moreover, the GI50 in experiment [12], in experiment [13], in [14], in [15], in experiment [16] and in experiment [17] was > 100 µM (inactive) throughout. In addition, the GI50 in experiment [18] is > 100 µM (inactive).

`COC(=O)C(Cc1ccccc1)NC(=O)CSc1nnc(COc2ccc(Cl)cc2)n1-c1ccccc1` (stereo unspecified): the GI50 in [1] is 21.8 µM (inactive); in [2] it was 37.7 µM (inactive); in experiment [3] it was 23.8 µM (inactive); in experiment [4] it was 39.4 µM (inactive); in [5] it was 17.7 µM (inactive); in experiment [6], 13.1 µM (inactive). The GI50 in experiment [19] was 19.7 µM (inactive); in experiment [20], 40.6 µM (inactive); in experiment [8], 22.3 µM (inactive); in experiment [9], 19.1 µM (inactive); in experiment [10], 23.4 µM (inactive); in [11], 34 µM (inactive). Besides, the GI50 was 27.4 µM (inactive) in experiment [12]; 5.41 µM (inactive) in experiment [13]; 19.1 µM (inactive) in experiment [14]; 18.6 µM (inactive) in [15]; 15.8 µM (inactive) in experiment [16]; 5.61 µM (inactive) in experiment [17]. For the same molecule, the GI50 in experiment [18] is 1.83 µM (inactive).

For the molecule `Cc1ccc(S(=O)(=O)OC2CCN(C)CC2)cc1`, the GI50 in experiment [1] was > 100 µM (inactive); in [3], 42.4 µM (inactive); in experiment [4] it was 57.8 µM (inactive); in experiment [5] it was > 100 µM (inactive); in experiment [6], 24.2 µM (inactive); in experiment [7] it was 19 µM (inactive). In addition, the GI50 in experiment [19] is 19 µM (inactive); in experiment [8], 33.7 µM (inactive); in experiment [9] it was > 100 µM (inactive); in [10] it was 47.9 µM (inactive); in experiment [11] it was 18.3 µM (inactive); in [12], > 100 µM (inactive). The GI50 in experiment [13] is 20.5 µM (inactive); in experiment [14], > 100 µM (inactive); in [15], > 100 µM (inactive); in experiment [16], > 100 µM (inactive).

With `Cc1ccc(C(=O)N/N=C(\N=N\c2ccc(C(=O)O)cc2)c2ccc(N(CCC#N)CCC#N)cc2C)cc1`, the GI50 was > 100 µM (inactive) in experiment [1]; > 100 µM (inactive) in experiment [2]; 43.9 µM (inactive) in experiment [3]; > 100 µM (inactive) in experiment [4]; > 100 µM (inactive) in experiment [5]; > 100 µM (inactive) in experiment [6]. For the same molecule, the GI50 was > 100 µM (inactive) in experiment [20]; > 100 µM (inactive) in experiment [8]; 32.1 µM (inactive) in [9]; > 100 µM (inactive) in experiment [10]; > 100 µM (inactive) in experiment [11]; 83 µM (inactive) in [12]. Further, the GI50 was > 100 µM (inactive) in [13]; > 100 µM (inactive) in [14]; > 100 µM (inactive) in [15]; 80.7 µM (inactive) in experiment [16]; > 100 µM (inactive) in [17]; > 100 µM (inactive) in experiment [18].

`C[N+]1(CCN=C=NC2CCCCC2)CCOCC1`: the GI50 in experiment [1], in [2], in experiment [3], in [4], in [5] and in [6] was > 100 µM (inactive) throughout. Moreover, the GI50 in experiment [7], in experiment [19], in experiment [20], in [8], in experiment [9] and in experiment [10] was > 100 µM (inactive) throughout. The GI50 in experiment [11], in experiment [12], in [13], in experiment [14], in experiment [15] and in [16] was > 100 µM (inactive) in each case. Besides, the GI50 in experiment [18] is > 100 µM (inactive).
